# Results: US20090118253A1, “COMPOSITIONS AND METHODS FOR TREATING DYSFUNCTIONAL UTERINE BLEEDING” (REPROS THERAPEUTICS INC., priority 2007, published 2009)
# Tests used:
# [1] = Serum corticosterone in rats; conditions: CDB-4124 10 or 20 mg/kg, RU 486 10 mg/kg, progesterone 10 mg/kg
# [2] = tested on: pre-menopausal adult women diagnosed with endometriosis; test: Six month endometriosis study: pain diaries and pain intensity surveys; assay type: in vivo, human; conditions: for pain free days, percent: 180 day treatment period
# Experimental: Pain reduction also occurred more rapidly than with the active control, Lucrin®. The response of pain to treatment in this study was analyzed in two ways. Patients in the study maintained daily pain diaries to record the severity and frequency of pain. In addition, at each office visit, patients filled out endometriosis symptom surveys that included a questionnaire that evaluated intensity of pain on a bad day on a scale of 0-10 with 10 being the greatest intensity. […] This decrease in duration of pain was statistically better (p=0.0012) than the 117.8 (74%; standard deviation 51.4 days) pain free days achieved with Lucrin n. […] Patients on CDB-4124 12.5 mg and 25 mg doses had 115.9 (66%; standard deviation 69.2 days) and 133.6 (75%; standard deviation 27.4 days) pain free days, respectively. […] The 25 mg and 12.5 mg doses of CDB-4124 were not statistically different from Lucrin®. […] The intensity of pain was asked by the question: “On a scale of 1-10, with 0 being no pain and 10 being extreme pain, how intense was your pain on a bad day?” The mean scores for intensity of pain at baseline were 6.3 for the CDB-4124 groups and 6.1 for the Lucrin® group. […] At month three all four active treatment groups had satistically significant reduction in pain compared with baseline, with the following scores: 3.7 (p=0.03) for 12.5 mg CDB-4124, 3.2 (p=0.03) for 25 mg CDB-4124, 1.6 (p=0.015) for 50 mg CDB-4124 and 1.5 (p=0.016) for Lucrin®. These dose related reductions continued until month six when the values for pain intensity were 2.0 (p=0.008), 2.8 (p=0.023), 0.6 (p=0.004) and 0.7 (p=0.016), respectively. Two months after stopping treatment pain returned and was of similar intensity in all four treatment groups.
# human endometrium = test: Six month endometriosis study: ultrasound measurements of endometrial thickness; assay type: in vivo; conditions: for Endometrium (mm), 1st dose: 1st dose visit; for Endometrium (mm), screening: screening (baseline)
# Description: Women in the study were closely monitored for changes in the structure of the endometrium. […] Comparisons were made to both baseline and visit one ultrasound measurements of endometrial thickness. […]
# Serum cortisol in rats = assay type: in vivo, rat
# Experimental: These higher levels were in the range of 3-4 ug/dl (30-40 ng/ml).
# [3] = Urinary estrogen levels (follicular phase) in cynomolgus monkeys; assay type: in vivo, Cynomolgus monkeys (Macaca fascicularis); set-up: Urinary estrogen, follicular phase, Mean: unit not given here; conditions: for Urinary estrogen, follicular phase, Mean: CDB-4124 or RU-486 oral 1.0 mg/kg/day, Lupron IM once per month
# Experimental: Cynomolgus monkeys (Macaca fascicularis) (n=14) were treated orally for 36 weeks with CDB-4124 or RU-486 at 1.0 mg/kg/day or with placebo (control). Another group (n=14) received Lupron® IM once per month. Urinary progesterone levels were measured for each animal for one month during the middle of the study (weeks 14-17) and for the last month of the study (weeks 33-36). The results are presented below:
# Urinary estrogen levels were measured for each animal of Example 6 for one month during the middle of the study (weeks 14-17) and for the last month of the study (weeks 33-36). The follicular phase results are based on 35 baseline ovulating cycles.
structure (smiles),measurement,setting,value
"COCC(=O)[C@@]1(OC(C)=O)CC[C@H]2[C@@H]3CCC4=CC(=O)CCC4=C3[C@@H](c3ccc(N(C)C)cc3)C[C@@]21C [CDB-4124, 21-methoxy-17α-acetoxy-11β-(4 N,N-dimethylaminophenyl)-19-norpregna-4,9-diene-3,20-dione]",differences in serum corticosterone between groups,[1],No differences
same,mean score for intensity of pain on a bad day (scale 0-10),[2]; baseline,6.3
same,score for intensity of pain on a bad day (scale 0-10),"[2]; month six, 12.5 mg/day",2.0
same,score for intensity of pain on a bad day (scale 0-10),"[2]; month six, 25 mg/day",2.8
same,score for intensity of pain on a bad day (scale 0-10),"[2]; month six, 50 mg/day",0.6
same,score for intensity of pain on a bad day (scale 0-10),"[2]; month three, 12.5 mg/day",3.7
same,score for intensity of pain on a bad day (scale 0-10),"[2]; month three, 25 mg/day",3.2
same,score for intensity of pain on a bad day (scale 0-10),"[2]; month three, 50 mg/day",1.6
same,pain free days over the 180 day treatment period,"[2]; women, 12.5 mg/day oral",115.9 days
same,"pain free days, percent","[2]; women, 12.5 mg/day oral",66%
same,pain free days over the 180 day treatment period,"[2]; women, 25 mg/day oral",133.6 days
same,"pain free days, percent","[2]; women, 25 mg/day oral",75%
same,days of pain over the first three months,"[2]; women, 50 mg/day oral",less than 1 day
same,pain free days over the 180 day treatment period,"[2]; women, 50 mg/day oral",170 days
same,"pain free days, percent","[2]; women, 50 mg/day oral",96%
same,women exhibiting thickened endometrium after three months,human endometrium; 12.5 mg dose (n=4),two
same,"Endometrium (mm), 1st dose",human endometrium; 12.5 mg,8.0 mm
same,"Endometrium (mm), 3 months",human endometrium; 12.5 mg,20.33 mm
same,"Endometrium (mm), screening",human endometrium; 12.5 mg,7.5 mm
same,women exhibiting thickened endometrium after three months,human endometrium; 25 mg dose (n=4),One
same,"Endometrium (mm), 1st dose",human endometrium; 25 mg,11.7 mm
same,"Endometrium (mm), 3 months",human endometrium; 25 mg,19.6 mm
same,"Endometrium (mm), screening",human endometrium; 25 mg,8.4 mm
same,women exhibiting thickened endometrium after three months,human endometrium; 50 mg dose (n=3),none
same,"Endometrium (mm), 1st dose",human endometrium; 50 mg,10.8 mm
same,"Endometrium (mm), 3 months",human endometrium; 50 mg,7.7 mm
same,"Endometrium (mm), screening",human endometrium; 50 mg,8.0 mm
same,levels of serum cortisol versus control group,"Serum cortisol in rats; 10 mg/kg, 21 days of chronic dosing",significantly higher
same,effect of increasing doses on serum cortisol,Serum cortisol in rats; FIG. 2,dose-dependent
same,Follicular phase estrogen Lower?,[3]; Week 18,No
same,"Urinary estrogen, follicular phase, Mean",[3]; Week 18,63.8
same,Follicular phase estrogen Lower?,[3]; Week 36,No
same,"Urinary estrogen, follicular phase, Mean",[3]; Week 36,67.3
